Entries after “also recorded” stand apart in the source; their conditions may differ.
Biological target: T1, human serum albumin (Homo sapiens, UniProt P02768)
Assay: not given
Conditions: prior knowledge on non-drugs such as gases; cited from earlier work

T1 sequence (P02768 25-609): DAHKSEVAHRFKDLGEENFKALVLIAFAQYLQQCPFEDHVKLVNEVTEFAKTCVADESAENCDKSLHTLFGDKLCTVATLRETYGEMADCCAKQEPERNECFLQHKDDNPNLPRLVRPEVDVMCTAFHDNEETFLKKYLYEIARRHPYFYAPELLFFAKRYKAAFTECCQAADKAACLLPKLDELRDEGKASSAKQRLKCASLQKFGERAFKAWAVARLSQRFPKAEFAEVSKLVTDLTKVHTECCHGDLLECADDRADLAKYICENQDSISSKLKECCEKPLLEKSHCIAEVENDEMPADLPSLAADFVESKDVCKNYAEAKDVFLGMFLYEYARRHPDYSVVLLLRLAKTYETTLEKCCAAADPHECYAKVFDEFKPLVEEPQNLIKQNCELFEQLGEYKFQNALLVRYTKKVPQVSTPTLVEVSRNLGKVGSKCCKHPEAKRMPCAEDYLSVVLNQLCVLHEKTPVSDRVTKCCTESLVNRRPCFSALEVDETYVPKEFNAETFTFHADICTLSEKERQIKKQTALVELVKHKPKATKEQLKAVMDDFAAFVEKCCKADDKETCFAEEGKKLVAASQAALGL

Compound	HSA site with binding affinity, previously known
FC(F)(F)C(Cl)Br (stereo not shown) [halothane]	IIA-IIB

Biological target: T1, human serum albumin
Assay: X-ray crystallography of human serum albumin/drug complexes: binding location
Parameters: Domain I (1 through 192); Domain II (193 through 395);Domain III (396 THROUGH 585)
Conditions: not given
Text: This information was derived from crystallization of the protein/ligand to create a protein/ligand complex and determining the atomic structure of the resulting complex by x-ray diffraction. The ligand may be any ligand capable of binding to the human serum albumin protein, and is preferably a ligand that binds to one of the binding sites described herein.
One method of obtaining information regarding the structural; characteristics of the albumin binding regions is through protein crystallization processes.
By applying standard crystallization protocols to the above described crystallizable compositions, crystals of the human serum albumin complex may be obtained. This, an even further aspect of this invention relates to a method of preparing human serum albumin complex-containing crystals. The method comprises the steps of • (a) obtaining a crystallizable composition comprising a human serum albumin protein, divalent cations, and a ligand capable of binding to the protein, and • (b) subjecting the composition of step (a) to conditions which promote crystallization.
The “active site binding pockets” or “active site” of human serum albumin refers to one of several areas determined experimentally on the human serum albumin protein surface where substrates bind.

Compound	Binding site of the Drug-Albumin Complex (site heading the list of contacting residues)
Cc1noc(NS(=O)(=O)c2ccc(N)cc2)c1C [Sulfisoxazole]	Site IB, L115, V116, R117, P118, M123, Y138, I142, Y161, L182,

Same assay, conditions: Table I, Phase I; subdomain of HSA where the drug is found in the crystal complex

Compound	Albumin Binding Location
CC(NC(C)(C)C)C(=O)c1cccc(Cl)c1 (stereo not shown) [Bupropion]	IIA, IIIA
CCCNC(=O)NS(=O)(=O)c1ccc(Cl)cc1 [Chlorpropamide]	IIA, IIIA
CCCCC(=O)O[C@H]1CC[C@H]2[C@@H]3CCc4cc(O)ccc4[C@H]3CC[C@]12C [Estradiol Valerate]	IIA
CC[C@H](C)C(=O)O[C@H]1C[C@@H](C)C=C2C=C[C@H](C)[C@H](CC[C@@H]3C[C@@H](O)CC(=O)O3)[C@H]21 [Lovastatin]	IIA
CN1C(CCl)Nc2cc(Cl)c(S(N)(=O)=O)cc2S1(=O)=O (stereo not shown) [Methayclothiazide]	IIA-IIB
CCc1nn(CCCN2CCN(c3cccc(Cl)c3)CC2)c(=O)n1CCOc1ccccc1 [Nefazodone]	IIIA
CC1(C)S[C@@H]2[C@H](NC(=O)COc3ccccc3)C(=O)N2[C@H]1C(=O)O [Penicillin V]	IIA
O=C1NC(=O)C(c2ccccc2)(c2ccccc2)N1 [Phenytoin]	IIA
C[C@]12C=CC(=O)C=C1CC[C@@H]1[C@@H]2C(=O)C[C@@]2(C)[C@H]1CC[C@]2(O)C(=O)CO [Prednisone]	IIA
CN(C/C=C/C#CC(C)(C)C)Cc1cccc2ccccc12 [Terbinafine]	IIIA
CC1=C(/C=C/C(C)=C/C=C/C(C)=C/C(=O)O)C(C)(C)CCC1 [Tertinoin]	IIIA

Same assay, conditions: Table II, Phase II; refined coordinates; listed residues within 5 Å of bound ligand

Compound	Binding site of the Drug-Albumin Complex (site heading the list of contacting residues)
COc1ccc2cc(CC(=O)O)ccc2c1 [6-MNA]	Site IB, R114, L115, R117, M123, L135, Y138, L139, I142, H146,; also recorded: Site IIA-IIBR209, A210, A213, W214, D324, L327, G328, L331,; also recorded: Site IIIA, L387, I388, N391, C392, F403, L407, R410, Y411, K414,
CC[C@@]1(O)C(=O)OCc2c1cc1n(c2=O)Cc2cc3c([N+](=O)[O-])cccc3nc2-1 [9 Nitro-Camptothecin]	Site IB, L115, V116, R117, Y138, I142, H146, F149, L154, F157,
CC(=O)Oc1ccccc1C(=O)O [Aspirin]	Site IIIB, F509, I513, R521, K524, K525, A528, M548, F551, A552,
O=C(O)CCNC(=O)c1ccc(/N=N/c2ccc(O)c(C(=O)O)c2)cc1 [Balsalazide]	Site IIA-IIIB, S401, K402, N405, A406, L407, V409, R410, K413,
CC[C@@]1(O)C(=O)OCc2c1cc1n(c2=O)Cc2cc3ccccc3nc2-1 [Camptothecin]	Site IB, L115, V116, R117, M123, Y138, I142, H146, F149, L154,
CCOc1nc2cccc(C(=O)OC(C)OC(=O)OC3CCCCC3)c2n1Cc1ccc(-c2ccccc2-c2nn[nH]n2)cc1 (stereo not shown) [Candesartan Cilexitil]	Site II-III, K195, L198, K199, S202, L203, F206, G207, A210, F211,; also recorded: Site IIIA, P384, L387, I388, N391, C392, F395, F403, L407, Y411,; also recorded: Site IIIA-IIIB, L398, Y401, K402, N405, A406, V409, R410, L529,
COc1ccccc1OCCNCC(O)COc1cccc2[nH]c3ccccc3c12 (stereo not shown) [Carvedilol]	Site IIIA, P384, L387, I388, N391, F403, L407, R410, Y411, K414,
CCc1cccc2c3c([nH]c12)C(CC)(CC(=O)O)OCC3 (stereo not shown) [Etodolac]	Site IB, L115, Y138, E141, I142, R145, H146, Y161, L182, L185,; also recorded: Site IIIA, P384, L387, I388, N391, F403, L407, R410, Y411, K414,
CC(C(=O)O)c1ccc(-c2ccccc2)c(F)c1 (stereo not shown) [Flurbiprofen]	Site IIIA, L387, I388, N391, C392, F395, F403, L407, R410, Y411,
Cc1ccc(C)c(OCCCC(C)(C)C(=O)O)c1 [Gemfrirozil]	Site IB, L115, V116, R117, F134, L135, Y138, L139, I142, R145,; also recorded: Site IIIA, L387, R410, Y411, K414, V415, V418, L423, V426, S427,
COc1ccc(Cl)cc1C(=O)NCCc1ccc(S(=O)(=O)NC(=O)NC2CCCCC2)cc1 [Glyburide]	Site IB, L115, V116, R117, P118, M123, A126, F134, K137, Y138,
CC(=O)[C@]1(O)Cc2c(O)c3c(c(O)c2[C@@H](O[C@H]2C[C@H](N)[C@H](O)[C@H](C)O2)C1)C(=O)c1ccccc1C3=O [Idarubicin]	Site IB, F036, F037, L115, V116, R117, P118, V122, M123, A126,
O=C(c1ccccc1)c1ccc2n1CCC2C(=O)O (stereo not shown) [Ketorolac]	Site IB, L115, R117, Y138, I142, H146, F157, Y161, L182, D183,; also recorded: Site IIIA, L387, I388, N391, C392, F403, L407, R410, Y411, K414,
Cc1ccc(Cl)c(Nc2ccccc2C(=O)O)c1Cl [Meclofenamic Acid]	Site IIIA, P384, L387, I388, N391, C392, F403, L407, R410, Y411,
Cc1cccc(Nc2ccccc2C(=O)O)c1C [Mefenamic Acid]	Site IIIA, E383, P384, L387, N391, C392, F403, L407, R410, Y411,
O=C(O)CCc1nc(-c2ccccc2)c(-c2ccccc2)o1 [Oxaprozin]	Site IIIA, P384, L387, I388, N391, C392, F403, L407, R410, Y411,
CC1(C)S[C@@H]2[C@H](NC(=O)Cc3ccccc3)C(=O)N2[C@H]1C(=O)O [Penecillin G]	Site IIA, Y150, K195, K199, F211, W214, A215, R218, L219, R222,
CN1C(C(=O)Nc2ccccn2)=C(O)c2ccccc2S1(=O)=O [Piroxicam]	Site IIA, K195, Q196, L198, K199, F211, W214, A215, R218, L219,
CC(CN1c2ccccc2Sc2ccccc21)N(C)C (stereo not shown) [Promethazine]	Site IIB, D308, F309, N318, E321, A322, V325, F326, N329
CCC(=O)O[C@](Cc1ccccc1)(c1ccccc1)[C@H](C)CN(C)C [Propoxyphene]	Site IIIB, F502, F507, F509, A528, E531, L532, H535, V547, D550,
O=C(c1ccccc1)c1ccc2n1CC[C@H]2C(=O)O [R-Ketorolac]	Site IB, R117, Y138, I142, H146, F149, L154, F157, Y161, L182,
Cc1nc2n(c(=O)c1CCN1CCC(c3noc4cc(F)ccc34)CC1)CCCC2 [Risperidone]	Site IIIA, L387, I388, N391, C392, F403, L407, R410, Y411, K414,
CCc1cccc2c3c([nH]c12)[C@](CC)(CC(=O)O)OCC3 [S-Etodolac]	Site IIIA, P384, L387, I388, N391, F403, L407, R410, Y411, K414,
O=C(c1ccccc1)c1ccc2n1CC[C@@H]2C(=O)O [S-Ketorolac]	Site IIIB, F507, F509, I513, L516, R521, K524, K525, A528, L532,
O=C(Oc1ccccc1C(=O)O)c1ccccc1O [Salsalate]	Site IIIB, F509, I513, R521, K524, K525, A528, M548, F551, A552,
CC1(C)S[C@@H]2[C@H](NC(=O)C(c3ccccc3)S(=O)(=O)O)C(=O)N2[C@H]1C(=O)O (stereo partly shown) [Sulbenicillin]	Site IIA, Y150, K195, K199, W214, R218, L219, R222, L238, H242,
CCCc1nc2c(C)cc(-c3nc4ccccc4n3C)cc2n1Cc1ccc(-c2ccccc2C(=O)O)cc1 [Telmisartan]	Site IB, L115, V116, R117, P118, M123, F134, K137, Y138, E141,
COc1cc([C@@H]2c3cc4c(cc3[C@@H](O[C@@H]3O[C@@H]5CO[C@@H](c6cccs6)O[C@H]5[C@H](O)[C@H]3O)[C@H]3COC(=O)[C@H]23)OCO4)cc(OC)c1O [Teniposide]	Site IB, L115, V116, R117, P118, A126, F134, K137, Y138, E141,
COc1cc(C(=O)NS(=O)(=O)c2ccccc2C)ccc1Cc1cn(C)c2ccc(NC(=O)OC3CCCC3)cc12 [Zafirlukast]	Site IIA, Y150, E153, K195, L198, K199, S202, F211, W214, A215,
Hemin	Site IB, R114, L115, V116, R117, P118, M123, F134, L135, Y138,

From patent US20070219767A1, “ATOMIC COORDINATES OF ALBUMIN DRUG COMPLEXES AND METHOD OF USE OF PHARMACEUTICAL DEVELOPMENT” (priority 2003, published 2007)
